Assay results published in article PMC4306142, “Structure of mycobacterial maltokinase, the missing link in the essential GlgE-pathway” (Scientific Reports, 2015).

Tests used:
[1] = system: Nc1nc2c(ncn2[C@@H]2O[C@H](COP(=O)(O)OP(=O)(O)OP(=O)(O)O)[C@@H](O)[C@H]2O)c(=O)[nH]1; experiment: purified protein; type: biochemical, Mycolicibacterium austroafricanum; settings: pH 7.5; 30.0 °C
[2] = target: T1, Mak^Mvan (Mycolicibacterium austroafricanum, UniProt A1TH50); experiment: X-ray crystal structure, […] Å; type: binding; design: full length (model Thr2-Gly441), C-terminal linker and His-tag kept, 454 residues in all; pET30a, NdeI/HindIII, E. coli; monomer; settings: co-crystallised with 4 mM AppCp, two Mg2+; nucleotide site, two conformations
[3] = target: T1, Mak^Mvan

T1 sequence (A1TH50 whole entry): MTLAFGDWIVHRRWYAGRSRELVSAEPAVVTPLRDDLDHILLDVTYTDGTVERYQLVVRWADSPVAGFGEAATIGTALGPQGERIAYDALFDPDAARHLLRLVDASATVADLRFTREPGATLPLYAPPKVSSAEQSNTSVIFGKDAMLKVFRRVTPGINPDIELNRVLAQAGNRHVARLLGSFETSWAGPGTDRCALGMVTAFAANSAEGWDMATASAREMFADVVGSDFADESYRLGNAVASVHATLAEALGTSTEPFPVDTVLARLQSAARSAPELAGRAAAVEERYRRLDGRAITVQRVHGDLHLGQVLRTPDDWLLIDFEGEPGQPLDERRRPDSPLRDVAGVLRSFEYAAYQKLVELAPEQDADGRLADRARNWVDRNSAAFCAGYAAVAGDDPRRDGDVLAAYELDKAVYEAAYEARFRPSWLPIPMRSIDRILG

## (Mycolicibacterium vanbaalenii PYR-1)
[1]
  Km: 5.8 ± 1.4 mM

## Nc1ncnc2c1ncn2[C@@H]1O[C@H](COP(=O)(O)OP(=O)(O)CP(=O)(O)O)[C@@H](O)[C@H]1O [AppCp, adenosine-5′-[(β,γ)-methyleno] triphosphate]
[2]
  X-ray crystal structure, 1.15 Å: structure of Mak^Mvan in complex with the non-hydrolysable ATP analog

## Nc1ncnc2c1ncn2[C@@H]1O[C@H](COP(=O)(O)OP(=O)(O)OP(=O)(O)O)[C@@H](O)[C@H]1O [ATP]
[3]
  X-ray crystal structure, 1.71 Å: 4WZY (Mak^Mvan:ATP complex)
